Data on 24 molecules can be found in PubChem BioAssay (NCI).

The structures appear in SMILES notation. Values joined by “and” are separate entries in the source; they are usually repeats but may differ in a detail not shown here. Equal values may be shown once.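 Briefly, cells in 96-well plates were exposed to five compound concentrations for 48 h, and endpoints were estimated by linear interpolation. GI50 is the concentration that inhibits growth by half. At the TGI there is no net growth.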

One assay relates to DLD-1 colon. In words: NCI-60 cell line screen, 48 h.
On to `Cc1c(C(=O)/C=C/c2ccccc2[N+](=O)[O-])[n+](=O)c2ccccc2n1[O-]`, for which the TGI is 17.9 µM.
`COc1ccc2c(NCCCCCCNc3c4ccccc4nc4cc(OC)ccc34)c3ccccc3nc2c1` registered a TGI of 2.62 µM.
The same measure, in the same setting: then `CC1(O)CCn2c(=O)c3cc4ccccc4cc3c(=O)n2C1O` (centres undefined), with more than 100 µM; and `CC(=O)n1c(=O)c2cc3c(=O)n(-c4cccc(C#N)c4)c(=O)c3cc2c1=O`, with more than 100 µM; and `COc1ccc(C2Oc3c(c(O)cc4c3[C@H](c3ccc(O)cc3O)[C@H](O)C(c3ccc(O)c(O)c3)O4)C[C@@H]2O)cc1O` (some centres undefined), with more than 100 µM.
Still for that read-out and setting: then `CN(C)C(=S)Nc1nnc(Nc2ccccc2)s1`, with more than 100 µM.
For the molecule `CC(=O)[CH-]C(=O)c1ccccc1.CC(=O)[CH-]C(=O)c1ccccc1.CC1(C)OCC(C2OC3OC(C)(C)OC3C2[O-])O1.CC[O-].[Ti+4]` (centres undefined), the GI50 is 9.78 µM and the TGI came out at 24.7 µM.
Turning to `CC1(C)CC(=O)C(CC2C(=O)c3ccccc3C2=O)C(=O)C1`, the TGI is more than 100 µM.
Consider `Cc1ccc(C)c(N2C(=O)C(=O)C(c3nc4ccccc4s3)C(=Nc3cccc4c(=O)[nH][nH]c(=O)c34)C2=O)c1` (centres undefined), for which the TGI was more than 100 µM.
The same measure, in the same setting: the result for `Cc1cccc(C)c1N1C(=O)C(=O)C(c2nc3ccccc3s2)C(=Nc2cccc3c(=O)[nH][nH]c(=O)c23)C1=O` (centres undefined) reads more than 100 µM.
Still for that read-out and setting: the result for `N#CC(C#N)=c1c2nsnc2c(=C(C#N)C#N)c2nsnc12` reads 4.39 µM; that for `Cc1nc(-c2cccnc2)sc1C(=O)/C=C/c1cccc([N+](=O)[O-])c1`, more than 100 µM.

The next assay concerns DMS 114 small cell lung. In words: NCI-60 cell line screen, 48 h.
`Cc1c(C(=O)/C=C/c2ccccc2[N+](=O)[O-])[n+](=O)c2ccccc2n1[O-]` came in with a TGI of 18 µM.
`CC(C)(C)c1ccc(OC2CCO2)cc1` (centres undefined) returned a TGI of more than 100 µM.
In turn, `CC1(O)CCn2c(=O)c3cc4ccccc4cc3c(=O)n2C1O` (centres undefined) yielded a TGI of more than 100 µM.
With `CC(=O)n1c(=O)c2cc3c(=O)n(-c4cccc(C#N)c4)c(=O)c3cc2c1=O`, the TGI was more than 100 µM.
In turn, `COc1ccc(C2Oc3c(c(O)cc4c3[C@H](c3ccc(O)cc3O)[C@H](O)C(c3ccc(O)c(O)c3)O4)C[C@@H]2O)cc1O` (some centres undefined) had a TGI of more than 100 µM.
For the molecule `CC1(C)CC(=O)C(CC2C(=O)c3ccccc3C2=O)C(=O)C1`, the TGI is more than 100 µM.
The molecule `Cc1ccc(C)c(N2C(=O)C(=O)C(c3nc4ccccc4s3)C(=Nc3cccc4c(=O)[nH][nH]c(=O)c34)C2=O)c1` (centres undefined) returned a TGI of more than 100 µM.
Same read-out and setting: then `N#CC(C#N)=c1c2nsnc2c(=C(C#N)C#N)c2nsnc12`, with 3.93 µM.
As for `Cc1nc(-c2cccnc2)sc1C(=O)/C=C/c1cccc([N+](=O)[O-])c1`, the TGI was more than 100 µM.

The test system of the next assay is DMS 273 small cell lung. In words: NCI-60 cell line screen, 48 h.
As to `Cc1c(C(=O)/C=C/c2ccccc2[N+](=O)[O-])[n+](=O)c2ccccc2n1[O-]`, the TGI is 16.8 µM.
`CC(C)(C)c1ccc(OC2CCO2)cc1` (centres undefined) came in with a TGI of more than 100 µM.
Same read-out and setting: the result for `CC1(O)CCn2c(=O)c3cc4ccccc4cc3c(=O)n2C1O` (centres undefined) reads more than 100 µM.
On the same count and under the same terms, then `CC(=O)n1c(=O)c2cc3c(=O)n(-c4cccc(C#N)c4)c(=O)c3cc2c1=O`, with more than 100 µM.
Still for that read-out and setting: the result for `COc1ccc(C2Oc3c(c(O)cc4c3[C@H](c3ccc(O)cc3O)[C@H](O)C(c3ccc(O)c(O)c3)O4)C[C@@H]2O)cc1O` (some centres undefined) reads more than 100 µM.
Turning to `CN(C)C(=S)Nc1nnc(Nc2ccccc2)s1`, the TGI was more than 100 µM.
The same measure, in the same setting: the result for `CC1(C)CC(=O)C(CC2C(=O)c3ccccc3C2=O)C(=O)C1` reads more than 100 µM.
On the same count and under the same terms, the result for `Cc1ccc(C)c(N2C(=O)C(=O)C(c3nc4ccccc4s3)C(=Nc3cccc4c(=O)[nH][nH]c(=O)c34)C2=O)c1` (centres undefined) reads more than 100 µM; that for `Cc1cccc(C)c1N1C(=O)C(=O)C(c2nc3ccccc3s2)C(=Nc2cccc3c(=O)[nH][nH]c(=O)c23)C1=O` (centres undefined), more than 100 µM; that for `N#CC(C#N)=c1c2nsnc2c(=C(C#N)C#N)c2nsnc12`, 3.24 µM.
`Cc1nc(-c2cccnc2)sc1C(=O)/C=C/c1cccc([N+](=O)[O-])c1` showed a TGI of more than 100 µM.

Another assay relates to LOX IMVI melanoma. Kind of assay: NCI-60 cell line screen, 48 h.
Take `CC1(O)CCn2c(=O)c3cc4ccccc4cc3c(=O)n2C1O` (centres undefined): the TGI was more than 100 µM.
Turning to `CC(=O)n1c(=O)c2cc3c(=O)n(-c4cccc(C#N)c4)c(=O)c3cc2c1=O`, the TGI was more than 100 µM.
For the molecule `COc1ccc(C2Oc3c(c(O)cc4c3[C@H](c3ccc(O)cc3O)[C@H](O)C(c3ccc(O)c(O)c3)O4)C[C@@H]2O)cc1O` (some centres undefined), the TGI is more than 100 µM.
Molecule `CN(C)C(=S)Nc1nnc(Nc2ccccc2)s1` came in with a TGI of more than 100 µM.
As to `CC(=O)[CH-]C(=O)c1ccccc1.CC(=O)[CH-]C(=O)c1ccccc1.CC1(C)OCC(C2OC3OC(C)(C)OC3C2[O-])O1.CC[O-].[Ti+4]` (centres undefined), the GI50 was 14.7 µM and the TGI turned out to be 29.8 µM.
As for `COc1c(O)c(OC)c2oc(-c3ccc(O)cc3)c(OC)c(=O)c2c1O`, the TGI is more than 100 µM.
Consider `COc1ccc(C2=C(N3CCc4ccccc43)C(=O)NC2=O)cc1`, for which the GI50 is more than 25 µM and the TGI was more than 25 µM.
Take `O=[N+]([O-])c1ccc(-c2cc3c(Nc4ccc(Cl)c(C(F)(F)F)c4)ncnc3s2)cc1`: the GI50 was 1.62 µM and the TGI was more than 100 µM.
The corresponding values for `Cc1cc2c(cc1Cl)S/C(=C/C(=O)O)C(Nc1cccc3nsnc13)=NS2(=O)=O` are 53.4 µM and more than 70.1 µM.
Regarding `COc1ccc(F)c(F)c1C(=O)c1cnc(NC2CCN(S(C)(=O)=O)CC2)nc1N`, the GI50 is 0.848 µM and 0.291 µM; the TGI was more than 100 µM.
Regarding `CC1(C)CC(=O)C(CC2C(=O)c3ccccc3C2=O)C(=O)C1`, the TGI was more than 100 µM.
Regarding `Nc1cc(-c2ccc(Cl)cc2)nn1-c1nnc(/C=C/c2ccco2)c(=O)[nH]1`, the GI50 was 4.82 µM and the TGI amounted to 37.8 µM.
Consider `O=C1c2ccccc2-c2c1c1c(NCCCO)nc3ccccc3c1n2Cc1ccccc1`, for which the GI50 was 15.9 µM and the TGI turned out to be 30.9 µM.
For `Cc1ccc(C)c(N2C(=O)C(=O)C(c3nc4ccccc4s3)C(=Nc3cccc4c(=O)[nH][nH]c(=O)c34)C2=O)c1` (centres undefined), the TGI was more than 100 µM.
Take `CCOc1ccc(Nc2c3ccccc3nc3ccccc23)cc1`: the GI50 was 0.515 µM and 0.529 µM; the TGI was found to be 2.98 µM.
As to `CCNCCNc1cc(-c2ccc(C#N)cc2)c(C#N)c2nc3ccccc3n12`, the GI50 was 1.72 µM and the TGI worked out at 3.29 µM.
Regarding `Cc1cccc(C)c1N1C(=O)C(=O)C(c2nc3ccccc3s2)C(=Nc2cccc3c(=O)[nH][nH]c(=O)c23)C1=O` (centres undefined), the TGI was more than 100 µM.
For the molecule `COc1cc2nc(-c3ccc(C(F)(F)F)cc3)cc(OCCCN3CCCC3)c2cc1OC`, the GI50 is 0.116 µM and the TGI was 0.322 µM.
As to `N#CC(C#N)=c1c2nsnc2c(=C(C#N)C#N)c2nsnc12`, the TGI turned out to be 3 µM.
`C/C1=C\CC[C@@](C)(O)[C@@H]2C[C@H](CC/C(C)=C/CC1)C1(CC1)C(=O)O2`: the GI50 is 18.8 µM and the TGI was 34.5 µM.
